Numbers after ± are expanded uncertainties.
Assay: relative permittivity at various frequencies (dimensionless); xn = mol fraction of the nth substance listed
Details: Gas, Frequency=385 MHz, Reentrant cavity resonator

[C-]#[O+] [carbon monoxide] + O=C=O
Details | relative permittivity
255.04 K, 1972.8 kPa, x1 = 0.7493 | 1.01697 ± 0.075
255.04 K, 3976.6 kPa, x1 = 0.7493 | 1.03607 ± 0.075
255.05 K, 3004.5 kPa, x1 = 0.4959 | 1.03119 ± 0.075
255.05 K, 5999.5 kPa, x1 = 0.7493 | 1.05751 ± 0.076
255.06 K, 1479.4 kPa, x1 = 0.4959 | 1.01417 ± 0.075
255.06 K, 1511.8 kPa, x1 = 0.4959 | 1.01451 ± 0.075
255.06 K, 2026.5 kPa, x1 = 0.7493 | 1.01747 ± 0.075
255.06 K, 3003.3 kPa, x1 = 0.4959 | 1.03118 ± 0.075
255.06 K, 4001.7 kPa, x1 = 0.4959 | 1.04416 ± 0.076
255.06 K, 5990.8 kPa, x1 = 0.7493 | 1.05742 ± 0.076
255.06 K, 7992.1 kPa, x1 = 0.7493 | 1.08067 ± 0.077
273.14 K, 1964 kPa, x1 = 0.7493 | 1.01551 ± 0.075
273.14 K, 3995.6 kPa, x1 = 0.7493 | 1.03288 ± 0.075
273.14 K, 5997.2 kPa, x1 = 0.7493 | 1.05136 ± 0.076
273.15 K, 2016.4 kPa, x1 = 0.7493 | 1.01594 ± 0.075
273.15 K, 4009 kPa, x1 = 0.7493 | 1.033 ± 0.075
273.15 K, 5997.2 kPa, x1 = 0.7493 | 1.05135 ± 0.076
273.15 K, 7991.2 kPa, x1 = 0.7493 | 1.07098 ± 0.077
273.2 K, 1454.1 kPa, x1 = 0.4959 | 1.01273 ± 0.075
273.2 K, 2480.8 kPa, x1 = 0.4959 | 1.02261 ± 0.075
273.2 K, 4502 kPa, x1 = 0.4959 | 1.0448 ± 0.076
273.2 K, 5505.6 kPa, x1 = 0.4959 | 1.05746 ± 0.076
273.21 K, 3471.2 kPa, x1 = 0.4959 | 1.03299 ± 0.075
293.23 K, 1980.8 kPa, x1 = 0.7493 | 1.0144 ± 0.075
293.23 K, 3995.9 kPa, x1 = 0.7493 | 1.02993 ± 0.075
293.23 K, 4015.8 kPa, x1 = 0.7493 | 1.0301 ± 0.075
293.23 K, 6011.2 kPa, x1 = 0.7493 | 1.04635 ± 0.076
293.23 K, 6015 kPa, x1 = 0.7493 | 1.04638 ± 0.076
293.23 K, 8001.1 kPa, x1 = 0.7493 | 1.0633 ± 0.077
293.24 K, 2023.8 kPa, x1 = 0.7493 | 1.01472 ± 0.075
293.25 K, 2039.7 kPa, x1 = 0.4959 | 1.0167 ± 0.075
293.25 K, 3988.8 kPa, x1 = 0.4959 | 1.03469 ± 0.075
293.25 K, 4025.1 kPa, x1 = 0.4959 | 1.03504 ± 0.075
293.25 K, 5986 kPa, x1 = 0.4959 | 1.05557 ± 0.076
293.26 K, 1975.2 kPa, x1 = 0.4959 | 1.01614 ± 0.075
293.26 K, 6541.1 kPa, x1 = 0.4959 | 1.06185 ± 0.076
313.26 K, 1937.1 kPa, x1 = 0.4959 | 1.01462 ± 0.075
313.26 K, 2024.1 kPa, x1 = 0.4959 | 1.0153 ± 0.075
313.26 K, 5954.7 kPa, x1 = 0.4959 | 1.04939 ± 0.076
313.26 K, 6218.2 kPa, x1 = 0.4959 | 1.0519 ± 0.076
313.27 K, 4013.4 kPa, x1 = 0.4959 | 1.03178 ± 0.075
313.28 K, 1974.2 kPa, x1 = 0.7493 | 1.01333 ± 0.075
313.28 K, 2022.8 kPa, x1 = 0.7493 | 1.01367 ± 0.075
313.28 K, 3992.7 kPa, x1 = 0.7493 | 1.02755 ± 0.075
313.28 K, 5954.9 kPa, x1 = 0.7493 | 1.04192 ± 0.076
313.28 K, 7996.5 kPa, x1 = 0.7493 | 1.05736 ± 0.076
313.29 K, 6015.3 kPa, x1 = 0.7493 | 1.04237 ± 0.076
